Experimental data published in patent publication US10166271B2, “Methods for promoting hair growth” (THE REGENTS OF THE UNIVERSITY OF CALIFORNIA, priority 2006, dated 2019).
Several values for one entry are separate records, joined by “and”; a condition that tells them apart may be missing. Equal entries are not always repeated.

How the values were obtained:
ACTH release = conditions: adrenalectomized rats; similar doses; Rivier et al. 1999; cited from earlier work
young CRF-OE mice [1] = conditions: mouse, in vivo
Method: Each subcutaneous injection is given in a single puncture located along or about the midline of the back. Age-matched CRF-OE mice similarly injected with 0.1 ml vehicle alone are used as negative controls. Astressin B fragments are as described in Example 8. Alternatively, topical astressin B can be applied to the mouse's back, for example 0.05 mg, 0.5 mg, 5 mg, 50 mg, or 500 mg of an astressin B fragment once daily for at least five consecutive days
Hair growth (or hair loss) is assessed using the hair growth scale described in Example 1. The general conditions of treated and control mice, such as weight, back skin thickness, hair luster, skin wounds and indurations, are noted.

CRF-OE mice = assay: Repeat sc experiment in female CRF-OE mice (4.5 months old): skin pigment and hair growth scores; assay type: in vivo; parameters: key to Skin pigmentation (Pg) score: 0 = bright pink skin, 10 = black pigmentation of entire region; key to Ventral Abdomen Hair Growth Score (VAb) / Back Hair Growth Score (BK): 0 = no change in hair, 10 = full hair growth in test area; conditions: sc 5 μg/mouse x 5 days
Method: Hair growth in CRF-OE mice was assessed using the hair growth scale developed by Vegesna et al. […], 2002) modified to account for phenotypic differences between CRF-OE mice. Scores were made visually as well as using photographs of each mouse at a weekly interval. The degree of alopecia varied between individual CRF-OE mice; thus, the percent difference between the amount of hair present in the test area (described below) before and 4 weeks after treatment was converted to a score of 0-10. A zero score corresponded to a no change in the amount of hair in the test area and a score of 10 corresponded to full hair growth in the entire test area. The scale for monitoring hair growth in CRF-OE mice is more particularly described in Table 2.
Pigmentation of the skin (also referred to as skin color) in the test region was also measured because, in C57BL/6 mice, the skin darkens at the onset of hair growth. A pigmentation score from 0-10 was given to each mouse with a score of 0 corresponding to bright pink skin color/pigment in the entire test region, a score of 1-5 corresponding to increasing intensity of a pale greyish color/pigment of skin in the test region, a score of 6-9 corresponding to increasing but non-confluent darker color/pigment of skin in the test region, and a score of 10 corresponding to black pigmentation of the entire test region. Pigmentation was measured one week after the fifth and final injection because changes (if any) in pigmentation are substantially complete by that time.
Experiments were repeated in female CRF-OE mice (4.5 months old) to confirm the results. Mice were injected with astressin B (5 μg/mouse, 10 mice) or saline (5 mice) for 5 days. Skin pigment and hair growth scores were given as described before. Five astressin B-treated and five saline injected mice were sacrificed for skin tissue collection at seven days post last injection. Additional mice (5) injected with astressin B were sacrificed on day 14. Five littermate wild type (WT) mice were used as normal control. Adrenal gland and abdominal fat weights were also checked at sacrifice of each mouse.
CRF-OE mice (approximately 4 months old) with fully developed alopecia on their backs were injected intraperitoneally (ip) with equal volumes (0.1 ml) of either saline or astressin B (5 μg/mouse/day) for 5 consecutive days. Skin pigment score and hair growth (on the back) score were determined as described in Example 1. In addition, because adult CRF-OE mice also lose ventral abdomen hair, a ventral abdomen (Vab) hair growth score was determined. The area considered for scoring ventral abdomen hair growth was delineated, in the front (anteriorly), by a horizontal line across the tip of the xifoid process (distal sternum), in the rear (posteriorly), by a horizontal line joining the back of the thighs along the anus, and, laterally, by a straight line along the lateral side of the ventral abdomen on left and right sides.

young CRF-OE mice [2] = assay: Cyclic CRF antagonists, prevention of hair loss in young CRF-OE mice (Example 11); assay type: in vivo; conditions: at least four weeks after the final administration
Description: Although mice are particularly described, one skilled in the art will appreciate that other laboratory animals and human subjects can be used, and doses adjusted accordingly (for example based on the weight of the subject, or the area to which the peptide is to be applied). Similarly, although particular modes of administration are described, one will appreciate that variations can be made (such as those disclosed herein and those known in the art).
Any method of administration can be used, including injection, transdermal/topical delivery, or combinations thereof.
In one example, therapeutic peptides are administered via injection. For example, mice can be injected subcutaneously or intraperitoneally with at least 0.05 μg, at least 0.5 μg, at least 5 μg, at least 50 μg, or at least 500 μg of one or more therapeutic peptides (for example 0.5-50 μg peptide, 0.5-10 μg peptide, or 5 μg peptide). The peptide can be administered in 0.1 ml sterile saline (or 5% mannitol) once per day for at least 5 consecutive days, such as at least 10 days, at least 30 days, or at least 60 days. […] As a negative control, CRF-OE mice receive saline alone (such as 10-100 μl) or 5 μg astressin 2B in 0.1 ml saline.
In another example, therapeutic peptides are administered topically or transdermally. […]

[3] = similar doses; Rivier et al. 2002; cited from earlier work
[4] = Before (Week 0), individual mice and Ave., listed as AB
[5] = Before (Week 0), individual mice and Ave., listed as AB, mean
[6] = Week 1, individual mice and Ave., listed as AB
[7] = Week 1, individual mice and Ave., listed as AB, mean

Substance	Duration of inhibition of elevated ACTH release (ACTH release)	General conditions of treated mice (young CRF-OE mice [1])	Skin pigmentation (Pg) score (CRF-OE mice; Before (Week 0), individual mice and Ave.)	Back Hair Growth Score (BK) (CRF-OE mice; [4])	Ventral Abdomen Hair Growth Score (VAb) (CRF-OE mice; [4])	Back Hair Growth Score (BK) (CRF-OE mice; [5])	Ventral Abdomen Hair Growth Score (VAb) (CRF-OE mice; [5])	Skin pigmentation (Pg) score (CRF-OE mice; Before (Week 0), individual mice and Ave., mean)	Back Hair Growth Score (BK) (CRF-OE mice; [6])	Skin pigmentation (Pg) score (CRF-OE mice; [6])	Ventral Abdomen Hair Growth Score (VAb) (CRF-OE mice; [6])	Back Hair Growth Score (BK) (CRF-OE mice; [7])	Skin pigmentation (Pg) score (CRF-OE mice; [7])	Ventral Abdomen Hair Growth Score (VAb) (CRF-OE mice; [7])	Ventral Abdomen Hair Growth Score (VAb) (CRF-OE mice; Week 2, 14 days follow-up group, individual mice and Ave.)	Back Hair Growth Score (BK) (CRF-OE mice; Week 2, 14 days follow-up group, individual mice and Ave., listed as AB)	Back Hair Growth Score (BK) (CRF-OE mice; Week 2, 14 days follow-up group, individual mice and Ave., listed as AB, mean)	Ventral Abdomen Hair Growth Score (VAb) (CRF-OE mice; Week 2, 14 days follow-up group, individual mice and Ave., mean)	Hair in the test area (young CRF-OE mice [2])	Duration of delay of gastric emptying [3]
(cyclo 30-33)[DPhe12, Nle21,38, Cml27,40, Glu30, Lys33]Ac-h/rCRF9-41 [Astressin B]	over 12 hours	well and substantially the same	0	0.5 (4×) and 1 (2×) and 0 (4×)	0.5 (4×) and 0.25 (6×)	0.7 and 0.1	0.35	0	10 (4×) and 9.5 (3×) and 7 and 9 and 8.5	10 (4×) and 9.5 (3×) and 7 and 9 and 8.5	0.5 (2×) and 0.25 (7×) and 0.75	9.5 and 9.1	9.5 and 9.1	0.35	0.5	5 and 9.5 and 8 (2×) and 10	8.1	0.5		
cyclo(31-34)[DPhe11, His12, CαMeLeu13,39, Nle17, Glu31, Lys34]Ac-Sau(8-40) [Astressin 2B, reference compound]																			ultimately develop alopecia in the test area	over 6 hours
